Data reported in patent US6905852B1, “Herbicide-resistant protoporphyrinogen oxidase isolated from Nicotiana tabacum” (Nihon Nohyaku Co., Ltd., priority 1997, dated 2005).
Where two headings read alike, the source gives them in different places.

Tests used:
[1] = molecular target: T1, E. coli SASX38 strain having pBAtPX-C with Arabidopsis thaliana wild type protoporphyrinogen oxidase gene (Arabidopsis thaliana, UniProt P55826); test: Growth inhibition of E. coli SASX38 (liquid culture with shaking); assay type: cell-based
T1 construct: expressed in transfected cells; host or cells: E. coli SASX38 (hemG-deficient) carrying pBAtPX-C (pBluescript SK(-))
T1 sequence (P55826 35-537): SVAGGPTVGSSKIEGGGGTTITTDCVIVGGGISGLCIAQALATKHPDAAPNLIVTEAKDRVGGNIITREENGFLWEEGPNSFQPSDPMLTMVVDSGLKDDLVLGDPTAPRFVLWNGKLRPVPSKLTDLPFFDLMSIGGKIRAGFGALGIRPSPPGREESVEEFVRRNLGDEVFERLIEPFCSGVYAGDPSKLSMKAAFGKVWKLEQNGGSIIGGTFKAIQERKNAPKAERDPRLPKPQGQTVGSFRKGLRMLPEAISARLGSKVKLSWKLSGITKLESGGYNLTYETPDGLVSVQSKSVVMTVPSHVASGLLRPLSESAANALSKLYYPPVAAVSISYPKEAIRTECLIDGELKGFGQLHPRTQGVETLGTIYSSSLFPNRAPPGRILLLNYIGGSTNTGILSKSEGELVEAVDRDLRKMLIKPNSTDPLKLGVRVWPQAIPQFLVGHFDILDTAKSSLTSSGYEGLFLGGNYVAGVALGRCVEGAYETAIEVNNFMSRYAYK
Procedure: (§1) The E. coli SASX38 strain containing either of the above-described two kinds of plasmid was cultured with shaking in LB liquid medium containing 50 μg/ml of ampicillin at 28° C. for overnight.

[2] = molecular target: T2, E. coli SASX38 strain having pCR-HC with tobacco wild type protoporphyrinogen oxidase cDNA (Nicotiana tabacum, UniProt O24163); test: as above; assay type: cell-based
T2 construct: expressed in transfected cells; host or cells: E. coli SASX38 (hemG-deficient) carrying pCR-HC
T2 sequence (O24163 51-548): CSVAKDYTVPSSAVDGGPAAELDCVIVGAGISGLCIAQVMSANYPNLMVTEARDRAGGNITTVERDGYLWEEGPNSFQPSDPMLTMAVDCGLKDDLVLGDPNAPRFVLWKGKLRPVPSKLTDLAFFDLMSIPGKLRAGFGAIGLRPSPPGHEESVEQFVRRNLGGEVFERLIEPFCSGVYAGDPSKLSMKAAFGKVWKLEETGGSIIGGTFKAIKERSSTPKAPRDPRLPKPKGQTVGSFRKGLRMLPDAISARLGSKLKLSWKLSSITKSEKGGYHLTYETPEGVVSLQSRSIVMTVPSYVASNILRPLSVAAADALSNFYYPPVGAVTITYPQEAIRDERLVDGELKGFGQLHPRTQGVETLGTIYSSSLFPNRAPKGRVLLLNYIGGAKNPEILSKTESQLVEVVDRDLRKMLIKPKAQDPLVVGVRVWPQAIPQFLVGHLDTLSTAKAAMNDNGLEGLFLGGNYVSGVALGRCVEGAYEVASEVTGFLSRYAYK
Procedure: as §1

[3] = system: E. coli SASX38 strain having pCR-RC with tobacco resistant type protoporphyrinogen oxidase gene; test: as above; assay type: cell-based, Nicotiana tabacum; details: for R/S b) Tobacco: Resistant type/Wild type; for Superiority c): b/a: tobacco R/S over Arabidopsis thaliana R/S
Procedure: as §1

[4] = molecular target: T3, E. coli SASX38 strain having pBAtPX-RC with Arabidopsis thaliana resistant type protoporphyrinogen oxidase cDNA (Arabidopsis thaliana, UniProt P55826, A220V); test: as above; assay type: cell-based; details: for R/S a) Arabidopsis thaliana: Resistant type/Wild type
T3 construct: expressed in transfected cells; host or cells: E. coli SASX38 (hemG-deficient) carrying pBAtPX-RC (pBluescript SK(-))
Procedure: as §1

[5] = molecular target: T4, E. coli SASX38 strain having pCR-RC with tobacco resistant type protoporphyrinogen oxidase gene (Nicotiana tabacum, UniProt O24163, A174P/A191P/A231V/T382S); test: as above; assay type: cell-based
T4 construct: expressed in transfected cells; host or cells: E. coli SASX38 (hemG-deficient) carrying pCR-RC
Procedure: as §1

[6] = system: ETR-253; test: MIC on MS agar medium, cross-resistance to herbicides; assay type: cell-based, Nicotiana tabacum
From the text: (§2) Further, cross-resistance of a resistant strain tolerant to herbicides with various modes of action was examined. Sensitivity to fomesafen (trade mark: FLEX) and oxadiazon (trade mark: RONSTAR), which are photobleaching herbicide and accumulate protoporphyrin IX; pyrazoxyfen (trademark: PAICER) which is a chlorophyll synthesis inhibitor and causes bleaching; DPX-84 and bialaphos (trademark: BASTA) and glyphosate (trademark: ROUNDUP) which are an inhibitor of the amino acid synthesis; butachlor (trademark: MACHETE) which is a protein synthesis inhibitor; propanil (trademark: STAM) which is an inhibitor of light synthesis photochemical system II and paraquat (trademark: PREEGLOX) which is an inhibitor of photosystem I and produces an active oxygen was compared. Into MS agar medium containing each herbicides, each resistant strain was transplanted and minimum inhibition concentration (MIC) was measured. […] From the above results, ETR-056 was thought to have resistance to an active oxygen caused by overproduction of superoxide dismutase, and ETR-253 was thought to have resistance to many herbicides caused by decreasing of a membrane permeability, and ETR-245 was thought to have resistance caused by mutation of a target enzyme or overproduction of a target enzyme.
(§3) MIC of compound A to the sensitive cell lines, ETR-056, ETR-245 and ETR-253 were measured.

[7] = system: ETR-245; test: as above; assay type: cell-based, Nicotiana tabacum
From the text: as §2, §3

[8] = system: ETR-056; test: as above; assay type: cell-based, Nicotiana tabacum
From the text: as §2, §3

[9] = system: Sensitive strain; test: as above; assay type: cell-based, Nicotiana tabacum; details: Sensitive strain
From the text: as §2, §3

T3 sequence (P55826 35-537 A220V): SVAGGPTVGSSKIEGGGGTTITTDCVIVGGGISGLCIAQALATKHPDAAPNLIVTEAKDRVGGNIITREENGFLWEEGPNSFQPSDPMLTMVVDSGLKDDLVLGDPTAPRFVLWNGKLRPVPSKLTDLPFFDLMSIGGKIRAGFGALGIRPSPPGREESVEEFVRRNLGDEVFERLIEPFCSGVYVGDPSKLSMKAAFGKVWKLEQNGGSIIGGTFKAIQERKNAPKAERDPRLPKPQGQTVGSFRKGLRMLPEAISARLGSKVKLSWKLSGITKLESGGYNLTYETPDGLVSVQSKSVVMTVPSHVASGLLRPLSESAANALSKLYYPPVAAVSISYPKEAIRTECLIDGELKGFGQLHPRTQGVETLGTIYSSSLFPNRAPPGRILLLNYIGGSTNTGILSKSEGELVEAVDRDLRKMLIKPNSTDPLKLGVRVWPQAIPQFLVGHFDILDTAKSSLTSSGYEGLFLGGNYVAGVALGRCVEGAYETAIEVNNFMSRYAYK
T4 sequence (O24163 whole entry A174P/A191P/A231V/T382S): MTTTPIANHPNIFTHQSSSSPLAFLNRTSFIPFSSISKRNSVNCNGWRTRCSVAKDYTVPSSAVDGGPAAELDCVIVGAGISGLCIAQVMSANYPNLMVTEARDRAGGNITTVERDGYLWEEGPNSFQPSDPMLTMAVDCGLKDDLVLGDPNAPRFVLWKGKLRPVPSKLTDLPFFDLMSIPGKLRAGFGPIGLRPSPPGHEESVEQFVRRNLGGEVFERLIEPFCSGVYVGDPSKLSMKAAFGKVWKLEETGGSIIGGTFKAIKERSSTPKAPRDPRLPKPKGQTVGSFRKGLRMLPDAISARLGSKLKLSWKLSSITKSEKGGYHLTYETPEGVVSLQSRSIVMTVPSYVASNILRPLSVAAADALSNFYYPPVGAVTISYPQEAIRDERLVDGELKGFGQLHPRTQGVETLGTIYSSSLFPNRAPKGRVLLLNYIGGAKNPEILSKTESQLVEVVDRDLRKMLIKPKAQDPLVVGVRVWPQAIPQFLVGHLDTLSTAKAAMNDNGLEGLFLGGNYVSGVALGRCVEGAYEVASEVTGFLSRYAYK

CCOC(=O)C(C)Nc1cc(-c2nn(C)c(OC(F)F)c2Cl)c(Cl)cc1Cl (stereo not drawn) [Comp.B, ethyl 2-[5-(4-chloro-5-difluoromethoxy-1-methyl-1H-pyrazol-3-yl)-2,4-dichloro-phenylamino]propionate]
IC50 [1]: 21 nM
IC50 [2]: 2.2 nM
R/S b) Tobacco [3]: 9,100
Superiority c) [3]: >10.6
IC50 [4]: 18000 nM
R/S a) Arabidopsis thaliana [4]: 860
IC50 [5]: > 20000 nM

COc1cc(-c2nn(C)c(OC(F)F)c2Cl)c(F)cc1Cl [Comp.C, 4-chloro-3-(4-chloro-2-fluoro-5-methoxyphenyl)-5-difluoromethoxy-1-methyl-1H-pyrazole]
IC50 [1]: 3 nM
IC50 [2]: 0.25 nM
R/S b) Tobacco [3]: 8,800
Superiority c) [3]: 14.7
IC50 [4]: 1800 nM
R/S a) Arabidopsis thaliana [4]: 600
IC50 [5]: 2200 nM

C#CCOc1cc(-c2nn(C)c(OC(F)F)c2Cl)c(F)cc1Cl [Comp.D, 4-chloro-3-[4-chloro-2-fluoro-5-(2-propynyl)oxyphenyl]-5-difluoromethoxy-1-methyl-1H-pyrazole]
IC50 [1]: 0.14 nM
IC50 [2]: 0.027 nM
R/S b) Tobacco [3]: 25,000
Superiority c) [3]: 12.5
IC50 [4]: 280 nM
R/S a) Arabidopsis thaliana [4]: 2,000
IC50 [5]: 670 nM

CCOC(=O)C(C)Oc1cc(-c2nn(C)c(OC(F)F)c2Cl)c(F)cc1Cl (stereo not drawn) [Comp.E, ethyl 2-[2-chloro-5-(4-chloro-5-difluoromethoxy-1-methyl-1H-pyrazol-3-yl)-4-fluorophenoxy]propionate]
IC50 [1]: 4.2 nM
IC50 [2]: 0.52 nM
R/S b) Tobacco [3]: 12,000
Superiority c) [3]: 12.6
IC50 [4]: 4000 nM
R/S a) Arabidopsis thaliana [4]: 950
IC50 [5]: 6300 nM

CC(C)OC(=O)c1cc(-c2nn(C)c(C(F)(F)F)c2Br)c(F)cc1Cl [Comp.F, 1-methylethyl 5-[4-bromo-1-methyl-5-(trifluoromethyl)-1H-pyrazol-3-yl]-2-chloro-4-fluorobenzoate]
IC50 ([1]; E. coli liquid culture method with shaking, read-out: I50 (nM) Arabidopsis thaliana Wild): 23 nM
IC50 ([2]; E. coli liquid culture method with shaking, read-out: I50 (nM) Tobacco Wild): 3.2 nM
R/S b) Tobacco [3]: 4,700
Superiority c) [3]: 16.8
IC50 [4]: 6400 nM
R/S a) Arabidopsis thaliana [4]: 280
IC50 [5]: 15000 nM

Cn1nc(-c2ccc(Cl)cc2F)c(Cl)c1OC(F)F [Comp.G, 4-chloro-3-(4-chloro-2-fluorophenyl)-5-difluorom ethoxy-1-methyl-1H-pyrazole]
IC50 [1]: 19 nM
IC50 [2]: 3.1 nM
R/S b) Tobacco [3]: 5,500
Superiority c) [3]: 12.0
IC50 [4]: 8700 nM
R/S a) Arabidopsis thaliana [4]: 460
IC50 [5]: 17000 nM

COC(=O)c1ccccc1CS(=O)(=O)NC(=O)Nc1nc(OC)cc(OC)n1 [DPX-84]
MIC (ppm) [6]: 0.1 ppm
MIC (ppm) [7]: 0.01 ppm
MIC (ppm) [8]: 0.01 ppm
MIC (ppm) [9]: 0.01 ppm

C[C@H](NC(=O)[C@H](C)NC(=O)[C@@H](N)CCP(C)(=O)O)C(=O)O [bialaphos]
MIC (ppm) [6]: 10 ppm
MIC (ppm) [7]: 1 ppm
MIC (ppm) [8]: 1 ppm
MIC (ppm) [9]: 10 ppm

CCCCOCN(C(=O)CCl)c1c(CC)cccc1CC [butachlor]
MIC (ppm) [6]: 100 ppm
MIC (ppm) [7]: 100 ppm
MIC (ppm) [8]: 100 ppm
MIC (ppm) [9]: 100 ppm

CS(=O)(=O)NC(=O)c1cc(Oc2ccc(C(F)(F)F)cc2Cl)ccc1[N+](=O)[O-] [fomesafen]
MIC (ppm) [6]: 4 ppm
MIC (ppm) [7]: 4 ppm
MIC (ppm) [8]: 4 ppm
MIC (ppm) [9]: 0.4 ppm

O=C(O)CNCP(=O)(O)O [glyphosate]
MIC (ppm) [6]: 1000 ppm
MIC (ppm) [7]: 230 ppm
MIC (ppm) [8]: 230 ppm
MIC (ppm) [9]: 230 ppm

CC(C)Oc1cc(-n2nc(C(C)(C)C)oc2=O)c(Cl)cc1Cl [oxadiazon]
MIC (ppm) [6]: 1000 ppm
MIC (ppm) [7]: 1000 ppm
MIC (ppm) [8]: 1000 ppm
MIC (ppm) [9]: 1 ppm

C[n+]1ccc(-c2cc[n+](C)cc2)cc1 [paraquat]
MIC (ppm) [6]: 10 ppm
MIC (ppm) [7]: 10 ppm
MIC (ppm) [8]: 100 ppm
MIC (ppm) [9]: 10 ppm

CCC(=O)Nc1ccc(Cl)c(Cl)c1 [propanil]
MIC (ppm) [6]: 100 ppm
MIC (ppm) [7]: 100 ppm
MIC (ppm) [8]: 100 ppm
MIC (ppm) [9]: 100 ppm

Cc1nn(C)c(OCC(=O)c2ccccc2)c1C(=O)c1ccc(Cl)cc1Cl [pyrazoxyfen]
MIC (ppm) [6]: 200 ppm
MIC (ppm) [7]: 100 ppm
MIC (ppm) [8]: 100 ppm
MIC (ppm) [9]: 100 ppm
